Assay results published in US20240150377A1, “MODULATORS OF CYSTIC FIBROSIS TRANSMEMBRANE CONDUCTANCE REGULATOR” (VERTEX PHARMACEUTICALS INCORPORATED, priority 2020, published 2024).

Target: T1, CFTR (Homo sapiens, UniProt P13569, DEL508-508)
T1 construct: endogenous in cells; host or cells: primary human bronchial epithelial cells from CF subjects (F508del/MF-HBE), differentiated at air-liquid interface
Test: HBE2 assay: Ussing chamber assay of CFTR-mediated short-circuit currents
Assay type: cell-based
Conditions: 3 μM corrector; F508del/MF-HBE cells; with 44 nM potentiator, 18-24 hours, 20% human serum
In short: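 Corrector activity read as CFTR-dependent ISC (μA/cm^2): peak forskolin current minus post-inhibitor steady state. Measured at 37 °C, voltage clamp at 0 mV, on F508del/MF-HBE epithelia grown >14 days air-liquid interface in Ussing chambers.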

T1 sequence (P13569 with tags, fused parts or gaps DEL508-508): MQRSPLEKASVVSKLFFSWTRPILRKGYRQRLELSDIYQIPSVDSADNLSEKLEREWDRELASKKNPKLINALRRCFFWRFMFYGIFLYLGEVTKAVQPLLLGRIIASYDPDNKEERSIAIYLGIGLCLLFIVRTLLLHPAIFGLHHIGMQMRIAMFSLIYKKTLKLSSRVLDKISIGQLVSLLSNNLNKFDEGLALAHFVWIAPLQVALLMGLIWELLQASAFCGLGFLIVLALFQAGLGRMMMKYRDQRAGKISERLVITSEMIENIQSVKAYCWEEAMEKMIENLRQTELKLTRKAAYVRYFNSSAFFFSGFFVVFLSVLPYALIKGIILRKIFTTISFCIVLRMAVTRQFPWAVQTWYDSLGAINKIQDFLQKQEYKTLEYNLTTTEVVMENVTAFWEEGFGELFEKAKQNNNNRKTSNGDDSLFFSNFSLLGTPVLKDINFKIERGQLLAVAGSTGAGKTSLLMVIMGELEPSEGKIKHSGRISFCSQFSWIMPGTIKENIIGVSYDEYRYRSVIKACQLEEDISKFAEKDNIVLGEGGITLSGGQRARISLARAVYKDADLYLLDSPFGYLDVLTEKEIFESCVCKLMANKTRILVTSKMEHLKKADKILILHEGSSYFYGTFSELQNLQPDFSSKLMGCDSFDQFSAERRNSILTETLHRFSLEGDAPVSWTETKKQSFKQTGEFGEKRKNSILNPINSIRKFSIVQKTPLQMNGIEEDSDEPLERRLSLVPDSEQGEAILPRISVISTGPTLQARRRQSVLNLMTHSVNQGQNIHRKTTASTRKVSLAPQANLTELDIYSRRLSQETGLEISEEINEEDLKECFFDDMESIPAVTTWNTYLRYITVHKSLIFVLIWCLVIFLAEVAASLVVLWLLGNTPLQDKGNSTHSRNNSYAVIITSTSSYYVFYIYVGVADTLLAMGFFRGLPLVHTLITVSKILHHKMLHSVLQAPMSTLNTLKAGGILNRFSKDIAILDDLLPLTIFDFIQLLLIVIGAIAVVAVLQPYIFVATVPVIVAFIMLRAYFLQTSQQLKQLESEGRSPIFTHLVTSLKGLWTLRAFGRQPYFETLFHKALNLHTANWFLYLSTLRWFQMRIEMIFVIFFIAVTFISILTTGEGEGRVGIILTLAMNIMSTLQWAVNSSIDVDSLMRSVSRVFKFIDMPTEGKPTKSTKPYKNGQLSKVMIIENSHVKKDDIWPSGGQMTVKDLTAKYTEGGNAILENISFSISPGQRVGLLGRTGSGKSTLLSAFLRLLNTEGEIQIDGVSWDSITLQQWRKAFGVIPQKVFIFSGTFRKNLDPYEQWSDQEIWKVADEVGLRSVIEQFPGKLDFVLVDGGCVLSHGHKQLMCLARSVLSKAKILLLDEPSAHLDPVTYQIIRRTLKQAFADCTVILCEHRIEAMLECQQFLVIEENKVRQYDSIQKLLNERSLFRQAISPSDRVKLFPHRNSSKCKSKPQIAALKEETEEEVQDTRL

| HBE2 Activity at 3 μM (%) | Compound |
| --- | --- |
| +++ (+++ is >60+) | Cc1cccc(C)c1-c1cc2nc(n1)NS(=O)(=O)c1cccc(c1)C(=O)N(Cc1cncc(N3CCCC[C@H]3C)n1)[C@H](CC1CCCCC1)CO2 [Compound 1822] |
| +++ (+++ is >60+) | Cc1cccc(C)c1-c1cc2nc(n1)NS(=O)(=O)c1cccc(c1)C(=O)N(Cc1cnc(C)c(N(C)CC(C)C)n1)[C@H](CC(C)(C)C)CO2 [Compound 1322, (11R)-6-(2,6-Dimethylphenyl)-11-(2,2-dimethylpropyl)-12-[[6-[isobutyl(methyl)amino]-5-methyl-pyrazin-2-yl]methyl]-2,2-dioxo-9-oxa-2λ^6-thia-3,5,12,19-tetrazatricyclo[12.3.1.14,8]nonadeca-1(18),4(19),5,7,14,16-hexaen-13-one] |
| +++ (+++ is >60+) | Cc1cccc(C)c1-c1cc2nc(n1)NS(=O)(=O)c1cccc(c1)C(=O)N(Cc1cncc(N3CC[C@H]3COC(C)C)n1)[C@H](CCC(C)(C)C)CO2 [Compound 1868] |
| +++ (+++ is >60+) | Cc1cccc(C)c1-c1cc2nc(n1)NS(=O)(=O)c1cccc(c1)C(=O)N(Cc1cccc(N(C)C(C)C)n1)[C@H](CC1(C)CCC1)CO2 [Compound 1762] |
| +++ (+++ is >60+) | Cc1cccc(C)c1-c1cc2nc(n1)NS(=O)(=O)c1cccc(c1)C(=O)N(Cc1nccc(N(C)C(C)C)n1)[C@H](CCC(C)C)CO2 [Compound 1734] |
| +++ (+++ is >60+) | Cc1cccc(C)c1-c1cc2nc(n1)NS(=O)(=O)c1cccc(c1)C(=O)N(Cc1cnc3ccn(C)c3n1)[C@H](CC(C)(C)C)CO2 [Compound 1853] |
| +++ (+++ is >60+) | Cc1cccc(C)c1-c1cc2nc(n1)NS(=O)(=O)c1cccc(c1)C(=O)N(Cc1cnc3c(n1)N(C)C(C)(C)C3)[C@H](CC(C)(C)C)CO2 [Compound 1883] |
| +++ (+++ is >60+) | Cc1cccc(C)c1-c1cc2nc(n1)NS(=O)(=O)c1cccc(c1)C(=O)N(Cc1cncc(N3CCC[C@H]3C)n1)[C@H](CC1CCCCC1)CO2 [Compound 1331, (11R)-11-(Cyclohexylmethyl)-6-(2,6-dimethylphenyl)-12-[[6-[(2R)-2-methylpyrrolidin-1-yl]pyrazin-2-yl]methyl]-2,2-dioxo-9-oxa-2^6-thia-3,5,12,19-tetrazatricyclo[12.3.1.14,8]nonadeca-1(18),4(19),5,7,14,16-hexaen-13-one] |
| +++ (+++ is >60+) | CO[C@H](C)[C@@H]1CCCN1c1cncc(CN2C(=O)c3cccc(c3)S(=O)(=O)Nc3nc(cc(-c4c(C)cccc4C)n3)OC[C@H]2CCC(C)(C)C)n1 [Compound 1935] |
| +++ (+++ is >60+) | Cc1cccc(C)c1-c1cc2nc(n1)NS(=O)(=O)c1cccc(c1)C(=O)N(Cc1cnc3cc(C(C)C)oc3n1)[C@H](CC(C)(C)C)CO2 [Compound 1882] |
| +++ (+++ is >60+) | Cc1cccc(C)c1-c1cc2nc(n1)NS(=O)(=O)c1cccc(c1)C(=O)N(Cc1cncc(N(C)CC(C)(C)F)n1)[C@H](CC(C)(C)C)CO2 [Compound 1759] |
| +++ (+++ is >60+) | Cc1cccc(C)c1-c1cc2nc(n1)NS(=O)(=O)c1cccc(c1)C(=O)N(Cc1cncc(N(C)C3CCC3C)n1)[C@H](CC(C)(C)C)CO2 (stereo partly drawn) [Compound 1785] |
| +++ (+++ is >60+) | Cc1cccc(C)c1-c1cc2nc(n1)NS(=O)(=O)c1cccc(c1)C(=O)N(Cc1cnc3cc(C(C)C)n(C)c3n1)[C@H](CCC1CC1)CO2 [Compound 1828] |
| +++ (+++ is >60+) | Cc1cccc(C)c1-c1cc2nc(n1)NS(=O)(=O)c1cccc(c1)C(=O)N(Cc1cncc(N(C)C3CCC3)n1)[C@H](C1CCCCC1)CO2 [Compound 1733] |
| ++ (++ is 30-60%) | Cc1cccc(C)c1-c1cc2nc(n1)NS(=O)(=O)c1cccc(c1)C(=O)N(Cc1cncc(N(C)C3CCC3)n1)[C@@H]1CCN(CC(C)(C)C)CC1O2 (stereo in doubt) [Compound 1765] |
| +++ (+++ is >60+) | Cc1cccc(C)c1-c1cc2nc(n1)NS(=O)(=O)c1cccc(c1)C(=O)N(Cc1cncc(N(C)C3CC4(CC4)C3)n1)[C@H](CCC(C)(C)C)CO2 [Compound 1817] |
| +++ (+++ is >60+) | Cc1cccc(C)c1-c1cc2nc(n1)NS(=O)(=O)c1cccc(c1)C(=O)N(Cc1cncc(N(C)C3CCC3)c1)[C@H](CC(C)(C)C)CO2 [Compound 1927] |
| +++ (+++ is >60+) | Cc1cccc(C)c1-c1cc2nc(n1)NS(=O)(=O)c1cccc(c1)C(=O)N(Cc1nccc(N(C)C(C)C)n1)[C@H](CCC(C)(C)C)CO2 [Compound 1715] |
| +++ (+++ is >60+) | Cc1cccc(C)c1-c1cc2nc(n1)NS(=O)(=O)c1cccc(c1)C(=O)N(Cc1cncc(N3CCCC4CCC43)n1)[C@H](CCC(C)(C)C)CO2 (stereo in doubt) [Compound 1782] |
| +++ (+++ is >60+) | Cc1cccc(C)c1-c1cc2nc(n1)NS(=O)(=O)c1cccc(c1)C(=O)N(Cc1cncc(N(C)[C@H]3C[C@H](F)C3)n1)[C@H](CCC1CC1)CO2 [Compound 1916] |

Same assay, conditions: 3 μM; F508del/MF-HBE cells; with 44 nM potentiator; 18-24 hours; 20% human serum

| HBE2 Activity at 3 μM (%) | Compound |
| --- | --- |
| + (+ is <300)) | Cc1cccc(C)c1-c1cc2nc(n1)NS(=O)(=O)c1cccc(c1)C(=O)N(Cc1ncc(OC(C)C)cn1)[C@H]([C@@H](C)C(C)C)CO2 (stereo in doubt) [Compound 1570] |
| +++ (+++ is >60+) | Cc1cccc(C)c1-c1cc2nc(n1)NS(=O)(=O)c1cccc(c1)C(=O)N(Cc1ncc(OC(C)C)cn1)[C@H](CCC1CC1)CO2 [Compound 1597] |
| +++ (+++ is >60+) | CO[C@@H]1CC[C@@H]1N(C)c1cncc(CN2C(=O)c3cccc(c3)S(=O)(=O)Nc3nc(cc(-c4c(C)cccc4C)n3)OC[C@H]2CC(C)(C)C)n1 (stereo in doubt) [Compound 1607] |
| +++ (+++ is >60+) | Cc1cccc(C)c1-c1cc2nc(n1)NS(=O)(=O)c1cccc(c1)C(=O)N(Cc1ncc(N3CC(C)(C)C3)cn1)[C@H](CCC1CC1)CO2 [Compound 1595] |
| +++ (+++ is >60+) | COCC1CC2(CCN2c2cncc(CN3C(=O)c4cccc(c4)S(=O)(=O)Nc4nc(cc(-c5c(C)cccc5C)n4)OC[C@H]3CC(C)(C)C)n2)C1 (stereo partly drawn) [Compound 1706] |
| +++ (+++ is >60+) | Cc1cccc(C)c1-c1cc2nc(n1)NS(=O)(=O)c1cccc(c1)C(=O)N(Cc1cncc(N(C)CC(C)C)n1)[C@H](CC1CC1)CO2 [Compound 1710] |
| +++ (+++ is >60+) | Cc1cccc(C)c1-c1cc2nc(n1)NS(=O)(=O)c1cccc(c1)C(=O)N(Cc1cncc(N(C)C3CCC3)n1)[C@H](C(C)C)CO2 [Compound 1690] |
| +++ (+++ is >60+) | CCN(CCOC)c1cncc(CN2C(=O)c3cccc(c3)S(=O)(=O)Nc3nc(cc(-c4c(C)cccc4C)n3)OC[C@H]2CC(C)(C)C)n1 [Compound 1580] |
| +++ (+++ is >60+) | Cc1cccc(C)c1-c1cc2nc(n1)NS(=O)(=O)c1cccc(c1)C(=O)N(Cc1cncc(N3CCOC4CCCC43)n1)[C@H](CC(C)(C)C)CO2 (stereo partly drawn) [Compound 1692] |
| +++ (+++ is >60+) | CCC(C)Oc1cnc(CN2C(=O)c3cccc(c3)S(=O)(=O)Nc3nc(cc(-c4c(C)cccc4C)n3)OC[C@H]2CCC2CC2)nc1 (stereo partly drawn) [Compound 1598] |
| +++ (+++ is >60+) | CCCOc1cnc(CN2C(=O)c3cccc(c3)S(=O)(=O)Nc3nc(cc(-c4c(C)cccc4C)n3)OC[C@H]2CCC2CC2)nc1 [Compound 1600] |
| +++ (+++ is >60+) | COC(=O)N(C)c1cncc(CN2C(=O)c3cccc(c3)S(=O)(=O)Nc3nc(cc(-c4c(C)cccc4C)n3)OC[C@H]2CC(C)(C)C)n1 [Compound 1582] |
| +++ (+++ is >60+) | Cc1cccc(C)c1-c1cc2nc(n1)NS(=O)(=O)c1cccc(c1)C(=O)N(Cc1cncc(N3C[C@H]4CCC[C@H]43)n1)[C@H](CC(C)(C)C)CO2 [Compound 1708] |
| +++ (+++ is >60+) | CCN(CC)c1cncc(CN2C(=O)c3cccc(c3)S(=O)(=O)Nc3nc(cc(-c4c(C)cccc4C)n3)OC[C@H]2CC(C)(C)C)n1 [Compound 1697] |
| +++ (+++ is >60+) | Cc1cccc(C)c1-c1cc2nc(n1)NS(=O)(=O)c1cccc(c1)C(=O)N(Cc1ccnc(N(C)C3CCC3)n1)[C@H](CC(C)(C)C)CO2 [Compound 1616] |
| +++ (+++ is >60+) | Cc1cccc(C)c1-c1cc2nc(n1)NS(=O)(=O)c1cccc(c1)C(=O)N(Cc1cnc(N(C)C3CCC3)cn1)[C@H](CC(C)(C)C)CO2 [Compound 1612] |
| +++ (+++ is >60+) | CNC(=O)OCCN(C)c1cncc(CN2C(=O)c3cccc(c3)S(=O)(=O)Nc3nc(cc(-c4c(C)cccc4C)n3)OC[C@H]2CC(C)(C)C)n1 [Compound 1666] |
| +++ (+++ is >60+) | Cc1cccc(C)c1-c1cc2nc(n1)NS(=O)(=O)c1cccc(c1)C(=O)N(Cc1cncc(N(C)C3CCC3)n1)[C@H](CC1CC3(CCC3)C1)CO2 [Compound 1682] |

| Compound | HBE2 Activity at 3 μM (%) |
| --- | --- |
| Cc1cccc(C)c1-c1cc2nc(n1)NS(=O)(=O)c1cccc(c1)C(=O)N(Cc1ncc(OC3CCCC3)c[n+]1[O-])[C@H](CC(C)C)CO2 [Compound 1305, (11R)-12-[[5-(Cyclopentoxy)-1-oxido-pyrimidin-1-ium-2-yl]methyl]-6-(2,6-dimethylphenyl)-11-isobutyl-2,2-dioxo-9-oxa-2λ^6-thia-3,5,12,19-tetrazatricyclo[12.3.1.14,8]nonadeca-1(18),4(19),5,7,14,16-hexaen-13-one] | +++ (+++ is >60+) |

Same assay, conditions: F508del/MF-HBE cells; corrector at a range of concentrations with 44 nM potentiator, 18-24 hours, 20% human serum

| EC50 | Compound |
| --- | --- |
| < 1 µM | Cc1cccc(C)c1-c1cc2nc(n1)NS(=O)(=O)c1cccc(c1)C(=O)N(Cc1cncc(N(C)C3CCC3)n1)[C@H](C1CCCCC1)CO2 [Compound 1733] |

Same assay, conditions: F508del/MF-HBE cells; with 44 nM potentiator; 18-24 hours; 20% human serum

| EC50 | Compound |
| --- | --- |
| < 1 µM | Cc1cccc(C)c1-c1cc2nc(n1)NS(=O)(=O)c1cccc(c1)C(=O)N(Cc1cncc(N(C)CC(C)C)n1)[C@H](CC1CC1)CO2 [Compound 1710] |
| < 1 µM | CCN(CCOC)c1cncc(CN2C(=O)c3cccc(c3)S(=O)(=O)Nc3nc(cc(-c4c(C)cccc4C)n3)OC[C@H]2CC(C)(C)C)n1 [Compound 1580] |

Same assay, conditions: F508del/MF-HBE cells; with 44 nM potentiator; 18-24 hours; 20% human serum; read-out: HBE2 Max activity (%)

| Emax | Compound |
| --- | --- |
| > 60% | Cc1cccc(C)c1-c1cc2nc(n1)NS(=O)(=O)c1cccc(c1)C(=O)N(Cc1cncc(N(C)CC(C)C)n1)[C@H](CC1CC1)CO2 [Compound 1710] |
| > 60% | CCN(CCOC)c1cncc(CN2C(=O)c3cccc(c3)S(=O)(=O)Nc3nc(cc(-c4c(C)cccc4C)n3)OC[C@H]2CC(C)(C)C)n1 [Compound 1580] |
| > 60% | Cc1cccc(C)c1-c1cc2nc(n1)NS(=O)(=O)c1cccc(c1)C(=O)N(Cc1cncc(N(C)C3CCC3)n1)[C@H](C1CCCCC1)CO2 [Compound 1733] |
